The results in this text go back to PubChem BioAssay (NCI).

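Protocol summary: plate cells (96-well), add compound at 5 concentrations, incubate 48 h, interpolate endpoints linearly. GI50: concentration for 50% inhibition of growth. TGI marks complete inhibition of growth.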 Some results are limits rather than exact numbers.

Holding throughout (test): DTP human tumour cell line panel, 48 h
Experiment [1] relates to UACC-257 melanoma.
Experiment [2] deals with SW-620 colon.
For experiment [3], the system named is RXF 393 renal.
Experiment [4] deals with OVCAR-5 ovarian.
In experiment [5] the test system is SF-295 CNS.
Experiment [6] concerns OVCAR-4 ovarian.
Experiment [7] concerns MDA-MB-435.
Experiment [8] deals with NCI-H522 lung.
For experiment [9], the system named is A498 renal.
In experiment [10] the test system is IGROV1 ovarian.

Regarding `Nc1c(C(=O)c2cccc(-c3cccnc3)c2)cnn1-c1ccc(F)cc1F`, the GI50 is 6.28 µM in [1]; 1.27 µM in experiment [2]; 7.91 µM in experiment [3]; more than 19.6 µM in experiment [4]; 3.26 µM in experiment [5]; 7.77 µM in experiment [6]. The GI50 in [7] is 0.476 µM; in experiment [8], 1.57 µM; in [9] it was 2.64 µM; in experiment [10], 2.06 µM. The TGI in experiment [1] is more than 25 µM; in [2] it was more than 25 µM; in experiment [3], more than 25 µM; in [4], more than 25 µM; in experiment [5], more than 24 µM; in [6], more than 25 µM. For the same compound, the total growth inhibition concentration (TGI) in experiment [7] was 1.36 µM; in [8] it was more than 15 µM; in [9], more than 23 µM; in experiment [10], more than 25 µM.

On to `COc1ccc(CC(=O)c2ccc(O)cc2O)cc1`, for which the GI50 in experiment [1] is more than 100 µM; in experiment [2], more than 100 µM; in experiment [3], more than 100 µM; in experiment [4] it was more than 100 µM; in [5], 46.2 µM; in [6] it was more than 100 µM. In addition, the GI50 in experiment [7] was more than 100 µM; in [8] it was 60.8 µM; in [9], 29.3 µM; in experiment [10], 53.4 µM. Besides, the TGI in experiment [1], in experiment [2], in [3], in experiment [4], in experiment [5] and in [6] was more than 100 µM each time. Besides, the TGI in experiment [7], in experiment [8], in experiment [9] and in experiment [10] was more than 100 µM in each case.

For the compound `COc1ccc(N(/C=C/C(=O)C(F)(F)F)CC(=O)c2ccc(F)cc2)cc1`, the GI50 was 23.7 µM in experiment [1]; 35 µM in [2]; 28.8 µM in experiment [3]; 34.1 µM in [4]; 27.4 µM in experiment [5]; 45.3 µM in experiment [6]. Besides, the GI50 in experiment [7] is 19.9 µM; in experiment [8], 18.7 µM; in [9] it was 14.2 µM; in [10], 13 µM. For the same compound, the TGI was 64.8 µM in experiment [1]; more than 100 µM in [2]; 77.4 µM in [3]; 93.3 µM in experiment [4]; 91 µM in experiment [5]; more than 100 µM in experiment [6]. Moreover, the TGI was determined as 52.2 µM in experiment [7], 36.9 µM in [8], 37.8 µM in experiment [9] and 30.7 µM in experiment [10].

On to `CCc1ccc2c(c1)C(=O)c1c-2n(CCCN=[N+]=[N-])c(=O)c2cc(OC)c(OC)cc12`, for which the GI50 in [1] was more than 100 µM; in [2], more than 100 µM; in [3] it was 29.9 µM; in [4], more than 100 µM; in [5], 56.1 µM; in experiment [6], more than 100 µM. The GI50 in experiment [7] is more than 100 µM; in experiment [8], 49 µM; in experiment [9], 25.8 µM; in [10], 53.4 µM. Moreover, the TGI in [1], in experiment [2], in experiment [3], in experiment [4], in [5] and in experiment [6] was more than 100 µM throughout. Besides, the TGI was more than 100 µM in experiment [7], more than 100 µM in experiment [8], 84.5 µM in experiment [9] and more than 100 µM in experiment [10].

With `Cc1cn2c(/C=C3/C(=O)Nc4ccc(O)cc43)c(C)nc2s1`, the GI50 in experiment [1] was 7.85 µM; in experiment [2] it was 2.88 µM; in experiment [3], 2.89 µM; in experiment [4], 28.3 µM; in [5], 1.73 µM; in [6], more than 51.4 µM. Also, the GI50 was 0.169 µM in experiment [7], 0.773 µM in experiment [8], 19.1 µM in experiment [9] and 7.23 µM in experiment [10]. In addition, the TGI in experiment [1] was more than 47.1 µM; in experiment [2] it was more than 100 µM; in experiment [3], more than 72.5 µM; in [4], more than 100 µM; in experiment [5], 8.08 µM; in experiment [6] it was more than 100 µM. The TGI in experiment [7] is 1.15 µM; in experiment [8], more than 29.3 µM; in [9] it was 67.7 µM; in experiment [10], more than 100 µM.

As for `N#CSCc1ccc(Cl)c(CSC#N)c1`, the GI50 was 15 µM in [1]; 0.0395 µM in experiment [2]; 0.559 µM in experiment [3]; 1.77 µM in experiment [4]; 3.15 µM in experiment [5]; 0.659 µM in experiment [6]. The GI50 is 0.133 µM in experiment [7], 0.0816 µM in [8], 0.273 µM in experiment [9] and 5.9 µM in experiment [10]. The TGI in [1] is 50.2 µM; in [2], 15.7 µM; in experiment [3] it was 12.3 µM; in [4] it was 24.5 µM; in experiment [5], more than 49.3 µM; in experiment [6], 19.4 µM. Besides, the total growth inhibition concentration (TGI) in [7] worked out at 3.81 µM; in [8] it was 9.06 µM; in experiment [9], 4.04 µM; in experiment [10], 49.8 µM.
